Converted amounts (≈) assume the structure as drawn. The source made the active and inactive calls. No cut-off for these calls is given here.
Tests used:
Format in all cases: functional
Aspergillus ochraceus [1] = assay: Antifungal activity against Aspergillus ochraceus RCMB 02593
Candida albicans [2] = assay: Antifungal activity against Candida albicans RCMB 05035 at 25 ug/ml after 72 hrs by agar well diffusion method; details: RCMB 05035, 72 h, read-out: DIZ
Candida albicans [3] = assay: Antifungal activity against Candida albicans RCMB 05035
Aspergillus ochraceus [4] = assay: Antifungal activity against Aspergillus ochraceus RCMB 02593 at 25 ug/ml after 72 hrs by agar well diffusion method; details: RCMB 02593, 72 h, read-out: DIZ
Pseudomonas aeruginosa [5] = assay: Antibacterial activity against Pseudomonas aeruginosa RCMB 010043 after 24 hrs by twofold serial dilution method; details: RCMB 010043, 24 h
Pseudomonas aeruginosa [6] = assay: Antibacterial activity against Pseudomonas aeruginosa RCMB 010043 at 1 mg/ml after 24 hrs by agar well diffusion method; details: for zone of inhibition at 1000 µg/mL: RCMB 010043, 24 h, read-out: DIZ
Bacillus subtilis [7] = assay: Antibacterial activity against Bacillus subtilis RCMB 010063 after 24 hrs by twofold serial dilution method; details: RCMB 010063, 24 h
Bacillus subtilis [8] = assay: Antibacterial activity against Bacillus subtilis RCMB 010063 at 1 mg/ml after 24 hrs by agar well diffusion method; details: RCMB 010063, 24 h, read-out: DIZ
Escherichia coli [9] = assay: Antibacterial activity against Escherichia coli RCMB 000103 at 1 mg/ml after 24 hrs by agar well diffusion method; details: for zone of inhibition at 1000 µg/mL: RCMB 000103, 24 h, read-out: DIZ
Candida albicans [10] = assay: Antifungal activity against Candida albicans RCMB 05035 at 1 mg/ml after 72 hrs by agar well diffusion method; details: for zone of inhibition at 1000 µg/mL: RCMB 05035, 72 h, read-out: DIZ
Staphylococcus aureus [11] = assay: Antibacterial activity against Staphylococcus aureus RCMB 010027 after 24 hrs by twofold serial dilution method; details: RCMB 010027, 24 h
Escherichia coli [12] = assay: Antibacterial activity against Escherichia coli RCMB 000103 after 24 hrs by twofold serial dilution method; details: RCMB 000103, 24 h
Aspergillus ochraceus [13] = assay: Antifungal activity against Aspergillus ochraceus RCMB 02593 at 1 mg/ml after 72 hrs by agar well diffusion method; details: RCMB 02593, 72 h, read-out: DIZ
Staphylococcus aureus [14] = assay: Antibacterial activity against Staphylococcus aureus RCMB 010027 at 1 mg/ml after 24 hrs by agar well diffusion method; details: RCMB 010027, 24 h, read-out: DIZ
Bacillus subtilis [15] = assay: Antibacterial activity against Bacillus subtilis RCMB 010063 at 25 ug/ml after 24 hrs by agar well diffusion method; details: RCMB 010063, 24 h, read-out: DIZ
Staphylococcus aureus [16] = assay: Antibacterial activity against Staphylococcus aureus RCMB 010027 at 25 ug/ml after 24 hrs by agar well diffusion method; details: RCMB 010027, 24 h, read-out: DIZ
Pseudomonas aeruginosa [17] = assay: Antibacterial activity against Pseudomonas aeruginosa RCMB 010043 at 25 ug/ml after 24 hrs by agar well diffusion method; details: RCMB 010043, 24 h, read-out: DIZ
Escherichia coli [18] = assay: Antibacterial activity against Escherichia coli RCMB 000103 at 25 ug/ml after 24 hrs by agar well diffusion method; details: RCMB 000103, 24 h, read-out: DIZ

Row | Compound | MIC (Aspergillus ochraceus [1]) [µg/mL] | MIC (Candida albicans [3]) [µg/mL] | zone of inhibition at 1000 µg/mL (Bacillus subtilis [8]) [mm] | zone of inhibition at 1000 µg/mL (Escherichia coli [9]) [mm] | zone of inhibition at 1000 µg/mL (Candida albicans [10]) [mm] | zone of inhibition at 1000 µg/mL (Aspergillus ochraceus [13]) [mm] | zone of inhibition at 1000 µg/mL (Staphylococcus aureus [14]) [mm] | diameter of the inhibition zone (DIZ) (Pseudomonas aeruginosa [6]) | diameter of the inhibition zone (DIZ) (Escherichia coli [9]) | diameter of the inhibition zone (DIZ) (Candida albicans [10]) | further results
1 | OC(Cn1cncn1)(Cn1cncn1)c1ccc(F)cc1F [FLUCONAZOLE] | 1.95 (≈ 6.37 µM) | 0.24 (≈ 0.784 µM) |  |  |  |  |  |  |  |  | zone of inhibition at 25 µg/mL (Candida albicans [2]): 26.4 mm; zone of inhibition at 25 µg/mL (Aspergillus ochraceus [4]): 21.9 mm
2 | COc1ccc2cc(C(C)C3=N/C(=C/c4ccc(F)cc4)C(=O)O3)ccc2c1 (stereo not drawn) | 15.6 (≈ 41.6 µM) | 125 (≈ 333 µM) | 20.6 | 19.3 | 19.9 | 18.3 | 20.3 |  |  |  | MIC (Pseudomonas aeruginosa [5]): 62.5 µg/mL (≈ 166 µM); zone of inhibition at 1000 µg/mL (Pseudomonas aeruginosa [6]): 15.3 mm; MIC (Bacillus subtilis [7]): 3.9 µg/mL (≈ 10.4 µM); MIC (Staphylococcus aureus [11]): 7.81 µg/mL (≈ 20.8 µM); MIC (Escherichia coli [12]): 15.6 µg/mL (≈ 41.6 µM)
3 | COc1ccc2cc(C(C)C(=O)Nc3ccc(S(=O)(=O)Nc4cc(C)on4)cc3)ccc2c1 (stereo not drawn) | 7.81 (≈ 16.8 µM) | 250 (≈ 537 µM) | 21.7 | 19.9 | 16.5 | 17.3 | 20.6 |  |  |  | MIC (Pseudomonas aeruginosa [5]): 1.95 µg/mL (≈ 4.19 µM); zone of inhibition at 1000 µg/mL (Pseudomonas aeruginosa [6]): 13 mm; MIC (Bacillus subtilis [7]): 62.5 µg/mL (≈ 134 µM); MIC (Staphylococcus aureus [11]): 31.2 µg/mL (≈ 67.1 µM); MIC (Escherichia coli [12]): 3.9 µg/mL (≈ 8.38 µM)
4 | CC1(C)S[C@@H]2[C@H](NC(=O)[C@H](N)c3ccccc3)C(=O)N2[C@H]1C(=O)O [AMPICILLIN] |  |  |  |  |  |  |  |  |  |  | zone of inhibition at 25 µg/mL (Bacillus subtilis [15]): 34.6 mm; zone of inhibition at 25 µg/mL (Staphylococcus aureus [16]): 28.9 mm; zone of inhibition at 25 µg/mL (Pseudomonas aeruginosa [17]): 17.3 mm; zone of inhibition at 25 µg/mL (Escherichia coli [18]): 21.4 mm
5 | COc1ccc2cc(C(C)C(=O)Nc3ccc(C)cc3)ccc2c1 (stereo not drawn) |  |  | 17.2 | 15.6 | 12.8 | 14.7 | 16.1 | inactive |  |  | 
6 | COc1ccc2cc(C(C)C(=O)NCC(=O)O)ccc2c1 (stereo not drawn) |  |  | 16.4 | 13.4 | 20.6 | 20.9 | 14.2 | inactive |  |  | 
7 | COc1ccc2cc(C(C)C3=N/C(=C/c4ccc(Cl)cc4)C(=O)O3)ccc2c1 (stereo not drawn) |  |  | 15 |  |  | 14.5 | 13.9 | inactive | inactive | inactive | 
8 | COc1ccc2cc(C(C)C(=O)NCCNC(=O)C(C)c3ccc4cc(OC)ccc4c3)ccc2c1 (stereo not drawn) |  |  | 14.5 |  |  | 12.6 | 13.1 | inactive | inactive | inactive | 
9 | COc1ccc2cc(C(C)C(=O)N/C(=C/c3ccc(Cl)cc3)C(=O)Nc3ccc(C)cc3)ccc2c1 (stereo not drawn) |  |  | 19.6 | 14.3 | 13.6 | 14.8 | 19.9 | inactive |  |  | 
10 | COc1ccc2cc(C(C)C(=O)Nc3ccc(Nc4ccccc4)cc3)ccc2c1 (stereo not drawn) |  |  | 15.4 |  |  | 17.6 | 13.9 | inactive | inactive | inactive | 

— ChEMBL document CHEMBL3045595, “Synthesis and characterization of new types of 2-(6-methoxy-2-naphthyl)propionamide derivatives as potential antibacterial and antifungal agents” (2013)
